In patent US10125098B2, “Therapeutic compounds and methods of use thereof” (GENENTECH, INC., priority 2014, dated 2018):
Structures can show the parent of a compound that is named as a salt.

Molecular target: T1, hNav1.7 (Homo sapiens, UniProt Q15858)
T1 construct: expressed in transfected cells
Assay: Tritiated compound binding (LBA) to membranes from cells expressing hNav1.7 and the β1 subunit, competitive binding
Conditions: competitive binding vs 100 pM [3H]compound, 18 h, room temperature, membranes with hNav1.7 and β1 subunit
Protocol: Tritiated Compound Binding to Membranes
Isolated from Cells that Heterologously Express hNav1.7 and the β1 Subunit
Preparation of membranes containing recombinantly expressed sodium channels: Frozen recombinant cell pellets were thawed on ice and diluted to 4 times the cell pellet weight with ice cold 50 mM Tris HCl, pH 7.4 buffer. The cell suspensions were homogenized on ice using a motorized glass dounce homogeniser. […] The supernatants were collected and centrifuged at 10000×g at 4° C. for 50 min. The pellets were then re-suspended in 100 mM NaCl, 20 mM Tris HCl, pH 7.4 buffer containing 1% v/v protease inhibitors (Calbiochem) and re-homogenized on ice. The homogenized membranes were then processed through a syringe equipped with a 26 gauge needle. Protein concentrations were determined by Bradford Assay and the membranes were stored at −80° C.
Saturation experiments. A representative compound of formula (I) having a methyl group was tritiated. Three tritiums were incorporated in place of methyl hydrogens to generate [^3H]compound. Binding of this radioligand was performed in 5 mL borosilicate glass test tubes at room temperature. Binding was initiated by adding membranes to increasing concentrations of [^3H]compound in 100 mM NaCl, 20 mM Tris HCl, pH 7.4 buffer containing 0.01% w/v bovine serum albumin (BSA) for 18 h. Non-specific binding was determined in the presence of 1 μM unlabeled compound. After 18 h, the reactants were filtered through GF/C glass fiber filters presoaked in 0.5% w/v polyethylene imine. […] [^3H]compound bound to filters was quantified by liquid scintillation counting.
Binding reactions were performed in 96-well polypropylene plates at room temperature for 18 h. In 360 μL, membranes were incubated with 100 pM [^3H]compound and increasing concentrations of Test Compound. Non-specific binding was defined in the presence of 1 μM unlabeled compound. Reactions were transferred and filtered through 96-well glass fiber/C filter plates presoaked with 0.5% polyethylene imine. […] Bound radioactivity was determined by liquid scintillation counting.
Data Analysis: For saturation experiments, non-specific binding was subtracted from total binding to provide specific binding and these values were recalculated in terms of pmol ligand bound per mg protein. Saturation curves were constructed and dissociation constants were calculated using the single site ligand binding model: Beq=(Bmax*X)/(X+Kd), where Beq is the amount of ligand bound at equilibrium, Bmax is the maximum receptor density, Kd is the dissociation constant for the ligand, and X is the free ligand concentration. For competition studies percent inhibition was determined and IC50 values were calculated using a 4 parameter logistic model (% inhibition=(A+((B−A)/(1+((x/C)^D)))) using XLfit, where A and B are the maximal and minimum inhibition respectively, C is the IC50 concentration and D is the (Hill) slope.

T1 sequence (Q15858 1-1977 isoform Q15858-3): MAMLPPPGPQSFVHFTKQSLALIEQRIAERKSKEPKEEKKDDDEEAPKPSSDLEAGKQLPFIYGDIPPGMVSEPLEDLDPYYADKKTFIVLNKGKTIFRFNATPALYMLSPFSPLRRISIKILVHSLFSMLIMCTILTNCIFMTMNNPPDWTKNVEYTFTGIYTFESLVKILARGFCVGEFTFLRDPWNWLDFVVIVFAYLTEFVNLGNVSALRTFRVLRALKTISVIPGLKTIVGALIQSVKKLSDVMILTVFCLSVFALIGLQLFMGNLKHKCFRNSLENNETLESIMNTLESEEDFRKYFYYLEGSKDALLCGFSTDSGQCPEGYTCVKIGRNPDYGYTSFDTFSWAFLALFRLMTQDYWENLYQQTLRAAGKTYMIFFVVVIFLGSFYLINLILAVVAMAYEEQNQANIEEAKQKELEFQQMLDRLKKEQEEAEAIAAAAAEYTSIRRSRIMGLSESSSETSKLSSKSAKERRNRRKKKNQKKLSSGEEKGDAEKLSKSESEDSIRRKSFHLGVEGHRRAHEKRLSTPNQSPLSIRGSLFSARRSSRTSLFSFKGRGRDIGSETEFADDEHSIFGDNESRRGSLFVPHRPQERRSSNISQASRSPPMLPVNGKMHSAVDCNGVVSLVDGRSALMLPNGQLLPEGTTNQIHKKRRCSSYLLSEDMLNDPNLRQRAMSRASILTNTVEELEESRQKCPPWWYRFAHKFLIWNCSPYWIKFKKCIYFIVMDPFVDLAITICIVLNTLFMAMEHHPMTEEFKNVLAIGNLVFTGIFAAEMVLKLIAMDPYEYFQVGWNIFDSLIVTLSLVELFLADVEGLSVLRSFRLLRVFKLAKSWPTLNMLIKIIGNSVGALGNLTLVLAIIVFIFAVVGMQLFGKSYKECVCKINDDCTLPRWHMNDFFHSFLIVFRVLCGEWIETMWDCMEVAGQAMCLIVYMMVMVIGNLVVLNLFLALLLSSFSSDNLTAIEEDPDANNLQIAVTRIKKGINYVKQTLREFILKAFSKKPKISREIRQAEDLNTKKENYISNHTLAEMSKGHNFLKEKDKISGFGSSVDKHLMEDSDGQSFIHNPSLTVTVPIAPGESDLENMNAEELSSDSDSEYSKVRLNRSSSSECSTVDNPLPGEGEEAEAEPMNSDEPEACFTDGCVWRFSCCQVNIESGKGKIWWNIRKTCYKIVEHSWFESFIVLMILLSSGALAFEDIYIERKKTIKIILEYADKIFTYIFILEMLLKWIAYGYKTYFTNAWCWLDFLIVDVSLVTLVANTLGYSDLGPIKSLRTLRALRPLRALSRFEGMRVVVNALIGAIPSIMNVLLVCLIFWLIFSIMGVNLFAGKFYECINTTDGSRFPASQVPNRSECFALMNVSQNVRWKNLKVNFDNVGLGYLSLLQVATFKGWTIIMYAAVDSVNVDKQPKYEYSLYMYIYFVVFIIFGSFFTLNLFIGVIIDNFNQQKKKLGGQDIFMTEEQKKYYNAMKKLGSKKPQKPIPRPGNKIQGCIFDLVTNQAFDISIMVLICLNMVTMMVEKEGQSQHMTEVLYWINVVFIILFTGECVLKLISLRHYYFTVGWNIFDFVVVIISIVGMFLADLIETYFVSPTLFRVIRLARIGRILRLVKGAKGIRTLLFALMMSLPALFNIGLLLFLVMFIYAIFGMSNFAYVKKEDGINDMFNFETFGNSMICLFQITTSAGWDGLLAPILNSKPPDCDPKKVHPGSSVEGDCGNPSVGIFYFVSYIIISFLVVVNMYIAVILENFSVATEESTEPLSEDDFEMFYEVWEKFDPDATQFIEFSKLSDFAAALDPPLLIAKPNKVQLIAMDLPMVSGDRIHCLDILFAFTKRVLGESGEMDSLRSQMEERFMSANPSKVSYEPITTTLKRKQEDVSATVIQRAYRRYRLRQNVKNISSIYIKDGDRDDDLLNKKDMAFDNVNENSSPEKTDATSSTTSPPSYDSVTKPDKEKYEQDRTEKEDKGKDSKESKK
T1 sequence (Q07699 19-218 partner): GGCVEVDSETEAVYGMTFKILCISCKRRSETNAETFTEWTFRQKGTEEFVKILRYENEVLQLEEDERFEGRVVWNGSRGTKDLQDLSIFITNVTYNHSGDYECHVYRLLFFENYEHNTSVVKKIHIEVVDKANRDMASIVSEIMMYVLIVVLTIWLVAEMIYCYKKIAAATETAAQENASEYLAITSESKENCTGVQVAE

Row | IC50 [µM] | SMILES
1 | 0.15 | O=C(O)[C@@H]1C[C@H](O)CN1C(=O)c1cc(C2CC2)c(OCC23CC4CC(CC(C4)C2)C3)cc1F [Example 46, (2S,4S)-1-[4-(1-adamantylmethoxy)-5-cyclopropyl-2-fluoro-benzoyl]-4-hydroxy-pyrrolidine-2-carboxylic acid]
2 | 8.4 | CN(CC(=O)O)C(=O)c1cc(C2CC2)c(OCC23CC4CC(CC(C4)C2)C3)cc1F [Example 45, 2-(4-(adamantan-1-ylmethoxy)-5-cyclopropyl-2-fluoro-N-methylbenzamido)acetic acid]
3 | ≥ 10 | O=C(O)[C@H]1C[C@@H](O)CN1C(=O)c1cc(C2CC2)c(OCC23CC4CC(CC(C4)C2)C3)cc1F [Example 47, (2R,4R)-1-[4-(1-adamantylmethoxy)-5-cyclopropyl-2-fluoro-benzoyl]-4-hydroxy-pyrrolidine-2-carboxylic acid]
4 | 0.04 | O=C(O)[C@@H]1CC(F)(F)CN1C(=O)c1cc(C2CC2)c(OCC23CC4CC(CC(C4)C2)C3)cc1F [Example 48, (2S)-1-[4-(1-adamantylmethoxy)-5-cyclopropyl-2-fluoro-benzoyl]-4,4-difluoro-pyrrolidine-2-carboxylic acid]
5 | > 10 | O=C(NC1(C(=O)O)CC1)c1cc(Cl)c(Oc2ccc(OC(F)(F)F)c(Cl)c2)cc1F [Example 36, 1-(5-chloro-4-(3-chloro-4-(trifluoromethoxy)phenoxy)-2-fluorobenzamido)-cyclopropanecarboxylic acid]
6 | 1.54 | N#CC1(COc2cc(F)c(C(=O)N3CCC[C@H]3C(=O)O)cc2C2CC2)C2CC3CC(C2)CC1C3 (stereo partly drawn) [Example 32, (S)-1-(4-(((1S,3S,5S,7S)-2-cyanoadamantan-2-yl)methoxy)-5-cyclopropyl-2-fluorobenzoyl)pyrrolidine-2-carboxylic acid]
7 | > 10 | O=C(O)[C@@H]1CCCN1C(=O)c1cc(F)c(Oc2ccc(Cl)cc2-c2ccnn2C2CNC2)cc1F [Example 34, (S)-1-(4-(2-(1-(azetidin-3-yl)-1H-pyrazol-5-yl)-4-chlorophenoxy)-2,5-difluorobenzoyl)pyrrolidine-2-carboxylic acid trifluoroacetic acid salt]
8 | 5.23 | O=C(O)[C@@H]1CCCN1C(=O)c1cc(Cl)c(Oc2ccc(OC(F)(F)F)c(Cl)c2)cc1F [Example 37, (S)-1-(5-chloro-4-(3-chloro-4-(trifluoromethoxy)phenoxy)-2-fluorobenzoyl)-pyrrolidine-2-carboxylic acid]
9 | 0.231 | C[C@]1(COc2cc(F)c(C(=O)N3CCC[C@H]3C(=O)O)cc2C2CC2)CC[C@@H](C(F)(F)F)CC1 [Example 42, cis-(S)-1-(5-cyclopropyl-2-fluoro-4-((1-methyl-4-(trifluoromethyl)-cyclohexyl)methoxy)benzoyl)pyrrolidine-2-carboxylic acid]
10 | 0.64 | O=C(O)[C@@H]1CCCN1C(=O)c1cc(Cl)c(OCC23CC4CC(CC(C4)C2)C3)cc1F [Example 41, (S)-1-(4-(adamantan-1-ylmethoxy)-5-chloro-2-fluorobenzoyl)pyrrolidine-2-carboxylic acid]
11 | 0.0176 | CC1(COc2cc(F)c(C(=O)N3CCC[C@H]3C(=O)O)cc2C2CC2)CN(C(c2ccccc2)c2cc(Cl)cc(Cl)c2)C1 (stereo partly drawn) [Example 28, (2S)-1-(5-cyclopropyl-4-((1-((3,5-dichlorophenyl)(phenyl)methyl)-3-methylazetidin-3-yl)methoxy)-2-fluorobenzoyl)pyrrolidine-2-carboxylic acid trifluoroacetic acid salt]

More lines, now with the values behind:

Row | SMILES | IC50 [µM]
12 | C[C@@H](Oc1cnc(C2CC2)c(Cl)c1)c1cc(F)c(C(=O)N2CCC[C@H]2C(=O)O)cc1C1CC1 [Example 15, (S)-1-(4-((R)-1-((5-chloro-6-cyclopropylpyridin-3-yl)oxy)ethyl)-5-cyclopropyl-2-fluorobenzoyl)pyrrolidine-2-carboxylic acid] | 6.96
13 | O=C(O)[C@@H]1CCCN1C(=O)c1cc(C2CC2)c(OCC2CCCCC2)cc1F [Example 13, (S)-1-(4-(cyclohexylmethoxy)-5-cyclopropyl-2-fluorobenzoyl)pyrrolidine-2-carboxylic acid] | 0.173
14 | O=C(O)[C@@H]1CCCN1C(=O)c1cc(C2CC2)c(CN2CCO[C@H](Cc3cc(Cl)cc(Cl)c3)C2)cc1F [Example 5, (S)-1-(5-cyclopropyl-4-(((R)-2-(3,5-dichlorobenzyl)morpholino)methyl)-2-fluorobenzoyl)pyrrolidine-2-carboxylic acid trifluoroacetic acid salt] | 0.468
15 | O=C(O)[C@@H]1CCCN1C(=O)c1cc(F)c(Oc2ccc(Cl)cc2-c2ccccc2)cc1F [Example 22, (S)-1-(4-((5-chloro-[1,1′-biphenyl]-2-yl)oxy)-2,5-difluorobenzoyl)pyrrolidine-2-carboxylic acid] | > 10
16 | O=C(O)[C@H]1CCCN1C(=O)c1cc(C2CC2)c(OCC23CC4CC(CC(C4)C2)C3)cc1F [Example 2, (R)-1-(4-(adamantan-1-ylmethoxy)-5-cyclopropyl-2-fluorobenzoyl)pyrrolidine-2-carboxylic acid] | 0.426
17 | CC(C)(NC(=O)c1cc(C2CC2)c(OCC23CC4CC(CC(C4)C2)C3)cc1F)C(=O)O [Example 8, 2-(4-(adamantan-1-ylmethoxy)-5-cyclopropyl-2-fluorobenzamido)-2-methylpropanoic acid] | 1.69
18 | CN(C(=O)c1cc(C2CC2)c(OCC23CC4CC(CC(C4)C2)C3)cc1F)C1(C(=O)O)CC1 [Example 7, 1-(4-(adamantan-1-ylmethoxy)-5-cyclopropyl-2-fluoro-N-methylbenzamido)-cyclopropanecarboxylic acid] | 3.05
19 | C[C@@H](Oc1ccc(Cl)c(Cl)c1)c1cc(F)c(C(=O)N2CCC[C@H]2C(=O)O)cc1C1CC1 [Example 14, (S)-1-(5-cyclopropyl-4-((R)-1-(3,4-dichlorophenoxy)ethyl)-2-fluorobenzoyl)pyrrolidine-2-carboxylic acid] | 2.37
20 | C[C@@H](Oc1ccc(Cl)c(Cl)c1)c1cc(F)c(C(=O)NC2(C(=O)O)CC2)cc1C1CC1 [Example 9, (R)-1-(5-cyclopropyl-4-(1-(3,4-dichlorophenoxy)ethyl)-2-fluorobenzamido)cyclopropanecarboxylic acid] | > 10

Molecular target: T2, human NaV1.7 (Homo sapiens, UniProt Q15858)
T2 construct: permanently transfected with an expression vector containing the full-length cDNA coding for the desired human sodium channel α-subunit; expressed in transfected cells; host or cells: HEK-293
Assay: Patch voltage clamp electrophysiology assay (EP), NaV1.7
Format: cell-based
Conditions: HEK-293 cells stably expressing NaV1.7 with β1 subunit; whole-cell patch clamp, membrane potential −60 mV (inactivated state)
Protocol: The following patch voltage clamp electrophysiology studies were performed on representative compounds of the invention using human embryonic kidney cells (HEK), permanently transfected with an expression vector containing the full-length cDNA coding for the desired human sodium channel α-subunit, grown in culture media containing 10% FBS, 1% PSG, and 0.5 mg/mL G418 at 37° C. with 5% CO2. […] NaV1.7 and NaV1.5 cDNAs (NM_002977 and AC137587; SCN5A, respectively) were stably expressed in HEK-293 cells. The β1 subunit was coexpressed in both the NaV1.7 and NaV1.5 cell lines.
Sodium currents were measured using the patch clamp technique in the whole-cell configuration using either a PatchXpress automated voltage clamp or manually using an Axopatch 200B (Axon Instruments) or Model 2400 (A-M systems) amplifier. The manual voltage clamp protocol was as follows: Borosilicate glass micropipettes were fire-polished to a tip diameter yielding a resistance of 2-4 Mohms in the working solutions. The pipette was filled with a solution comprised of: 5 mM NaCl, 10 mM CsCl, 120 mM CsF, 0.1 mM CaCl2, 2 mM MgCl2, 10 mM HEPES, 10 mM EGTA; and adjusted to pH 7.2 with CsOH. The external solution had the following composition: 140 mM NaCl, 5 mM KCl, 2 mM CaCl2, 1 mM MgCl2, 10 mM HEPES; and adjusted to pH 7.4 with NaOH. In some studies, the external sodium was reduced by equimolar replacement with choline. Osmolarity in the CsF internal and NaCl external solutions was adjusted to 300 mOsm/kg and 310 mOsm/kg with glucose, respectively. All recordings were performed at ambient temperature in a bath chamber with a volume of 150 μL. Control sodium currents were measured in 0.5% DMSO. Controls and representative compounds of the invention were applied to the recording chamber through a 4-pinch or 8-pinch valve bath perfusion system manufactured by ALA Scientific Instruments.
Series resistance compensation was applied (60-80%). […] All statistics in this study are given as mean±SD.
The membrane potential was maintained at a voltage where inactivation of the channel is complete (which was −60 mV for both NaV1.7 and NaV1.5). The voltage is then stepped back to a very negative (Vhold=[…]) voltage for 20 ms and then a test pulse is applied to quantify the compound block. […] The percent decrease in sodium current following wash-on of compound was taken as the percent block of sodium channels.

T2 sequence (Q15858 1-1977 isoform Q15858-3): as the sequence (Q15858 1-1977 isoform Q15858-3) above
T2 sequence (Q07699 19-218 partner): as the sequence (Q07699 19-218 partner) above

Row | IC50 [µM] | SMILES
21 | 0.87 | O=C(O)[C@@H]1C[C@H](O)CN1C(=O)c1cc(C2CC2)c(OCC23CC4CC(CC(C4)C2)C3)cc1F [Example 46, (2S,4S)-1-[4-(1-adamantylmethoxy)-5-cyclopropyl-2-fluoro-benzoyl]-4-hydroxy-pyrrolidine-2-carboxylic acid]
22 | 11.7 | CN(CC(=O)O)C(=O)c1cc(C2CC2)c(OCC23CC4CC(CC(C4)C2)C3)cc1F [Example 45, 2-(4-(adamantan-1-ylmethoxy)-5-cyclopropyl-2-fluoro-N-methylbenzamido)acetic acid]
23 | 16 | O=C(O)[C@H]1C[C@@H](O)CN1C(=O)c1cc(C2CC2)c(OCC23CC4CC(CC(C4)C2)C3)cc1F [Example 47, (2R,4R)-1-[4-(1-adamantylmethoxy)-5-cyclopropyl-2-fluoro-benzoyl]-4-hydroxy-pyrrolidine-2-carboxylic acid]
24 | 0.64 | O=C(O)[C@@H]1CC(F)(F)CN1C(=O)c1cc(C2CC2)c(OCC23CC4CC(CC(C4)C2)C3)cc1F [Example 48, (2S)-1-[4-(1-adamantylmethoxy)-5-cyclopropyl-2-fluoro-benzoyl]-4,4-difluoro-pyrrolidine-2-carboxylic acid]
